From publication PMC9230803, “Synthesis and Antiviral Properties against SARS-CoV-2 of Epoxybenzooxocino[4,3-b]Pyridine Derivatives” (Molecules, 2022) come the findings set out here.

For one assay, the system named is SARS-CoV-2 virus. The experiment in a line: microbe, parasite or virus in culture. Conditions: for inhibition of virus-induced CPE development / virus replication (in words): any concentration up to the tested limit of 200 µg/mL; for selectivity index (SI): IC50/EC50 in Vero E6 cells. Format: cell-based.
Another assay relates to Vero E6 cells. Kind of assay: cells. Format: cell-based. Conditions: Chlorocebus sabaeus, Vero C1008, upper limit of concentrations tested 200 µg/mL, read-out: IC50 (the source's name).
The mark [1] stands for this setting: Severe acute respiratory syndrome coronavirus 2, Vero C1008, SARS-CoV-2 in Vero E6 cells, CPE-positive wells reduced by half, upper limit tested 200 µg/mL, read-out: EC50.
[2] abbreviates: cytotoxicity, uninfected Vero E6 cells, MTT.
The mark [3] stands for this setting: SARS-CoV-2 in Vero E6 cells, CPE-positive wells reduced by half, upper limit tested 200 µg/mL.

In brackets after ≈: the same amount, converted by molar mass. Like-named read-outs stand apart in the source and are kept apart here. Where only a bound is given, the exact number is not on record here.

In general, EC50 refers to the midpoint of the concentration-response curve. As to `CC(=O)c1cc2c(nc1C)CC1OC2(C)Oc2ccccc21` (stereo not shown) [Compound 3, 1-(2,5-dimethyl-11,12-dihydro-5H-5,11-epoxybenzo[7,8]oxocino[4,3-b]pyridin-3-yl)ethan-1-one], the EC50 in the assay on SARS-CoV-2 virus (setting [1]) is greater than 200 µg/mL. Further, the “inhibition of virus-induced CPE development / virus replication (in words)” value with SARS-CoV-2 virus is given as “did not affect the development of CPE”. For the same molecule, the CC50 in the assay with Vero E6 cells (setting [2]) is 131 µg/mL (≈ 444 µM).
Turning to `CC(=NNC(=O)c1ccncc1)c1cc2c(nc1C)CC1OC2(C)Oc2ccccc21` (stereo not shown) [Compound 4a, (E,Z)-N′-(1-(2,5-dimethyl-11,12-dihydro-5H-5,11-epoxybenzo[7,8]oxocino[4,3-b]pyridin-3-yl)ethylidene)isonicotinohydrazide], the EC50 in the assay on SARS-CoV-2 virus (setting [1]) was greater than 200 µg/mL. Moreover, the “inhibition of virus-induced CPE development / virus replication (in words)” value in the assay on SARS-CoV-2 virus is recorded as “did not affect the development of CPE”. Moreover, the CC50 with Vero E6 cells (setting [2]) was greater than 200 µg/mL.
For the molecule `C/C(=N\NC(=O)c1ccccc1O)c1cc2c(nc1C)CC1OC2(C)Oc2ccccc21` (stereo not shown) [Compound 4b, (E)-N′-(1-(2,5-dimethyl-11,12-dihydro-5H-5,11-epoxybenzo[7,8]oxocino[4,3-b]pyridin-3-yl)ethylidene)-2-hydroxybenzohydrazide], in the assay with SARS-CoV-2 virus (setting [1]), the concentration for a half-maximal effect (EC50) is greater than 200 µg/mL. Besides, the “inhibition of virus-induced CPE development / virus replication (in words)” value in the assay with SARS-CoV-2 virus was “did not affect the development of CPE”. Besides, the CC50 in the assay on Vero E6 cells (setting [2]) is greater than 200 µg/mL.
Take `Cc1nc2c(cc1C(=O)/C=C(\O)C(=O)O)C1(C)Oc3ccccc3C(C2)O1` (stereo not shown) [Compound 5, (Z)-4-(2,5-dimethyl-11,12-dihydro-5H-5,11-epoxybenzo[7,8]oxocino[4,3-b]pyridin-3-yl)-2-hydroxy-4-oxobut-2-enoic acid]: the 50% effective concentration (EC50) in the assay with SARS-CoV-2 virus (Severe acute respiratory syndrome coronavirus 2, Vero C1008) is greater than 200 µg/mL. The “inhibition of virus-induced CPE development / virus replication (in words)” value in the assay on SARS-CoV-2 virus is recorded as “did not affect the development of CPE”. The CC50 in the assay on Vero E6 cells ([…]) is greater than 200 µg/mL.
With `Cc1nc2c(cc1C(=O)/C=C1\Nc3ccccc3NC1=O)C1(C)Oc3ccccc3C(C2)O1` (stereo not shown) [Compound 6a, (Z)-3-(2-(2,5-dimethyl-11,12-dihydro-5H-5,11-epoxybenzo[7,8]oxocino[4,3-b]pyridin-3-yl)-2-oxoethylidene)-3,4-dihydroquinoxalin-2(1H)-one], the “wells presenting the CPE” value with SARS-CoV-2 virus (6a at 0.82 μg/mL, ten wells per concentration) is “Eight of ten”. The “wells showing the CPE” value in the assay with SARS-CoV-2 virus (6a at 2.47 μg/mL, ten wells per concentration) is given as “one in ten”. The “selectivity index (SI)” value in the assay on SARS-CoV-2 virus worked out at 2.7. Further, the concentration for a half-maximal effect (EC50) in the assay with SARS-CoV-2 virus (setting [3]) was 2.2 µg/mL (≈ 5.01 µM); in the assay on SARS-CoV-2 virus (setting [1]), 2.23 µg/mL (≈ 5.07 µM). In addition, in the assay with SARS-CoV-2 virus, the “inhibition of virus-induced CPE development / virus replication (in words)” value is on record as “inhibition of CPE development was found”. Moreover, the CC50 with Vero E6 cells (setting [2]) turned out to be 6 µg/mL (≈ 13.7 µM).
With `Cc1nc2c(cc1C(=O)/C=C1\Nc3ccccc3OC1=O)C1(C)Oc3ccccc3C(C2)O1` (stereo not shown) [Compound 6b, (Z)-3-(2-(2,5-dimethyl-11,12-dihydro-5H-5,11-epoxybenzo[7,8]oxocino[4,3-b]pyridin-3-yl)-2-oxoethylidene)-3,4-dihydro-2H-benzo[b][1,4]oxazin-2-one], in the assay with SARS-CoV-2 virus (setting [1]), the concentration for a half-maximal effect (EC50) was greater than 200 µg/mL. The “inhibition of virus-induced CPE development / virus replication (in words)” value with SARS-CoV-2 virus is recorded as “did not affect the development of CPE”. Also, in the assay on Vero E6 cells (setting [2]), the CC50 is greater than 200 µg/mL.
As for `Cc1nc2c(cc1C(=O)/C=C1\Nc3ccc([N+](=O)[O-])cc3OC1=O)C1(C)Oc3ccccc3C(C2)O1` (stereo not shown) [Compound 6c, (Z)-3-(2-(2,5-dimethyl-11,12-dihydro-5H-5,11-epoxybenzo[7,8]oxocino[4,3-b]pyridin-3-yl)-2-oxoethylidene)-7-nitro-3,4-dihydro-2H-benzo[b][1,4]oxazin-2-one], the EC50 in the assay on SARS-CoV-2 virus (setting [1]) is greater than 200 µg/mL. The “inhibition of virus-induced CPE development / virus replication (in words)” value with SARS-CoV-2 virus was “did not affect the development of CPE”. Moreover, the CC50 in the assay with Vero E6 cells (setting [2]) was greater than 200 µg/mL.
With `CCN(CC)CCOc1ccc2c(c1)C(=O)c1cc(OCCN(CC)CC)ccc1-2.Cl` [Tilorone, 2,7-bis[2-(diethylamino)ethoxy]fluoren-9-one hydrochloride, reference compound], in the assay with SARS-CoV-2 virus, the “selectivity index (SI)” value amounted to 1.8. Moreover, the concentration giving a half-maximal response (EC50) with SARS-CoV-2 virus (setting [3]) was found to be 4.3 µg/mL; in the assay with SARS-CoV-2 virus (setting [1]), 4.29 µg/mL.
